System: glutathione peroxidase
Assay: Hydrogen peroxide tests, glutathione peroxidase reactivity
Format: biochemical
Details: A340 nm, 25 degrees Celsius; low and high concentration
Protocol: The inventive oxygen-enriched output fluid material was tested for the presence of hydrogen peroxide by testing the reactivity with glutathione peroxidase using a standard assay (Sigma). Briefly, glutathione peroxidase enzyme cocktail was constituted in deionized water and the appropriate buffers. Water samples were tested by adding the enzyme cocktail and inverting. Continuous spectrophotometric rate determination was made at A340 nm, and room temperature (25 degrees Celsius).
Water samples were tested by adding the enzyme cocktail and inverting. Continuous spectrophotometric rate determination was made at A340 nm, and room temperature (25 degrees Celsius).

- reactivity with glutathione peroxidase: strong reactivity
Compound: OO [hydrogen peroxide]
